The values that follow come from PubChem BioAssay (NCI).

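Five compound concentrations were applied to cells in 96-well plates for 48 hours; endpoints were derived by simple linear interpolation of the resulting dose-response curve. Definition used: TGI = concentration required for complete inhibition of growth.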 Bounds are passed on as bounds.

The first assay concerns OVCAR-3 ovarian. The assay can be described thus: NCI anticancer screen, dose series, 48 h.
`Cc1ccc(NC(=S)NNC(=O)c2cc(-c3ccccc3)nc3ccccc23)cc1`: the TGI is 21.7 µM.

`O=C(O)c1cccnc1` had a TGI of over 100 µM.

Consider `COc1ccc(-c2nc(SCC(=O)N/N=C/c3ccc(O)c(OC)c3)[nH]c2-c2ccc(OC)cc2)cc1`, for which the TGI is 48 µM.

Consider `Cc1cn(CCCCCOC(=O)NC(CCCN=C(N)N)C(=O)O)c(=O)[nH]c1=O` (stereo not given), for which the TGI was over 100 µM.

Turning to `COc1ccc(C(=O)/C=C/c2ccncc2)cc1OC`, the TGI was determined as 18.6 µM.

Compound `CC(C)(C)NC(=O)N1N=C(c2ccccc2)C1c1ccccc1` (stereo not given) gave a TGI of 50.3 µM.

As for `CC(C)(C)C(=O)OC(N)/C=C/c1ccccc1` (stereo not given), the TGI is over 100 µM.

`O=C(CCc1cc(O)cc(O)c1)NCCc1cc(O)cc(O)c1` came in with a TGI of over 100 µM.

For the compound `CC1(C)OC(=C(C#N)C#N)C(C#N)=C1/C=C/c1ccncc1`, the TGI came to 3.59 µM.

A further assay deals with LOX IMVI melanoma. The assay can be described thus: NCI anticancer screen, dose series, 48 h.
`CC(CCC#N)(CCC#N)C(=O)CC(O)(C(F)(F)F)C(F)(F)F` had a TGI of 8.14 µM.

`COc1ccc(-c2c(C#N)c(O)n(NS(=O)(=O)c3ccc(C)cc3)c(=O)c2C#N)cc1` returned a TGI of over 100 µM.

Regarding `CC12CC(C#N)(C#N)C(C#N)(CO1)C(=N)O2` (stereo not given), the TGI is over 100 µM.

Take `COc1ccc(OC)c(N2C(=O)CSC2c2cc(OC)c(OC)c(OC)c2)c1` (stereo not given): the TGI is over 100 µM.

Take `COc1ccc(CCN=C2OCc3ccccc32)cc1OC`: the TGI is over 100 µM.

In turn, `O=C(O)c1cccnc1` had a TGI of over 100 µM.

As to `COc1ccc(-c2nc(SCC(=O)N/N=C/c3ccc(O)c(OC)c3)[nH]c2-c2ccc(OC)cc2)cc1`, the TGI worked out at 46.7 µM.

In turn, `Cc1cn(CCCCCOC(=O)NC(CCCN=C(N)N)C(=O)O)c(=O)[nH]c1=O` (stereo not given) came in with a TGI of over 100 µM.

`COc1ccc(C(=O)/C=C/c2ccncc2)cc1OC` displayed a TGI of 3.05 µM.

Consider `CC(C)(C)NC(=O)N1N=C(c2ccccc2)C1c1ccccc1` (stereo not given), for which the TGI is over 100 µM.

Consider `O=C(CCc1cc(O)cc(O)c1)NCCc1cc(O)cc(O)c1`, for which the TGI is over 100 µM.

`CC1(C)OC(=C(C#N)C#N)C(C#N)=C1/C=C/c1ccncc1` had a TGI of 3.51 µM.

For the compound `C[C@@H]1CCC2[C@@H](C)[C@@H](OCCO[C@H]3OC4O[C@@]5(C)CCC6[C@H](C)CCC([C@H]3C)[C@@]46OO5)OC3O[C@@]4(C)CCC1[C@]32OO4` (stereo not given in full), the TGI is over 40.5 µM.

The next assay deals with HT29 colon. Put plainly: NCI anticancer screen, dose series, 48 h.
On to `CC(CCC#N)(CCC#N)C(=O)CC(O)(C(F)(F)F)C(F)(F)F`, for which the TGI is 28.7 µM.

`CC(C)(C)[Si](C)(C)OC1/C(=C/C#N)C(n2ccc(=O)[nH]c2=O)OC1CO` (stereo not given) came in with a TGI of over 100 µM.

As to `COc1ccc(-c2c(C#N)c(O)n(NS(=O)(=O)c3ccc(C)cc3)c(=O)c2C#N)cc1`, the TGI was over 100 µM.

As to `CC12CC(C#N)(C#N)C(C#N)(CO1)C(=N)O2` (stereo not given), the TGI was over 100 µM.

On to `COc1ccc(OC)c(N2C(=O)CSC2c2cc(OC)c(OC)c(OC)c2)c1` (stereo not given), for which the TGI is over 100 µM.

`COc1ccc(CCN=C2OCc3ccccc32)cc1OC` had a TGI of over 100 µM.

`Cc1ccc(NC(=S)NNC(=O)c2cc(-c3ccccc3)nc3ccccc23)cc1` registered a TGI of 55 µM.

`O=C(O)c1cccnc1` had a TGI of over 100 µM.

Consider `COc1ccc(-c2nc(SCC(=O)N/N=C/c3ccc(O)c(OC)c3)[nH]c2-c2ccc(OC)cc2)cc1`, for which the TGI turned out to be 46.1 µM.

In turn, `Cc1cn(CCCCCOC(=O)NC(CCCN=C(N)N)C(=O)O)c(=O)[nH]c1=O` (stereo not given) showed a TGI of 60.1 µM.

Consider `COc1ccc(C(=O)/C=C/c2ccncc2)cc1OC`, for which the TGI amounted to 21.7 µM.

In turn, `CC(C)(C)NC(=O)N1N=C(c2ccccc2)C1c1ccccc1` (stereo not given) yielded a TGI of 32.2 µM.

Take `CC(C)(C)C(=O)OC(N)/C=C/c1ccccc1` (stereo not given): the TGI was over 100 µM.

The compound `O=C(CCc1cc(O)cc(O)c1)NCCc1cc(O)cc(O)c1` returned a TGI of over 100 µM.

On to `CC1(C)OC(=C(C#N)C#N)C(C#N)=C1/C=C/c1ccncc1`, for which the TGI worked out at 4.07 µM.

The compound `C[C@@H]1CCC2[C@@H](C)[C@@H](OCCO[C@H]3OC4O[C@@]5(C)CCC6[C@H](C)CCC([C@H]3C)[C@@]46OO5)OC3O[C@@]4(C)CCC1[C@]32OO4` (stereo not given in full) showed a TGI of over 100 µM.

For the next assay, the system named is UACC-62 melanoma. Put plainly: NCI anticancer screen, dose series, 48 h.
As to `CC(CCC#N)(CCC#N)C(=O)CC(O)(C(F)(F)F)C(F)(F)F`, the TGI was found to be 19.8 µM.

Compound `CC(C)(C)[Si](C)(C)OC1/C(=C/C#N)C(n2ccc(=O)[nH]c2=O)OC1CO` (stereo not given) showed a TGI of over 100 µM.

For `COc1ccc(-c2c(C#N)c(O)n(NS(=O)(=O)c3ccc(C)cc3)c(=O)c2C#N)cc1`, the TGI was over 100 µM.

Turning to `CC12CC(C#N)(C#N)C(C#N)(CO1)C(=N)O2` (stereo not given), the TGI is over 100 µM.

As for `COc1ccc(OC)c(N2C(=O)CSC2c2cc(OC)c(OC)c(OC)c2)c1` (stereo not given), the TGI is over 100 µM.

Consider `COc1ccc(CCN=C2OCc3ccccc32)cc1OC`, for which the TGI is over 100 µM.

The compound `Cc1ccc(NC(=S)NNC(=O)c2cc(-c3ccccc3)nc3ccccc23)cc1` gave a TGI of 30.6 µM.

Turning to `COc1ccc(-c2nc(SCC(=O)N/N=C/c3ccc(O)c(OC)c3)[nH]c2-c2ccc(OC)cc2)cc1`, the TGI came to 27.4 µM.

`Cc1cn(CCCCCOC(=O)NC(CCCN=C(N)N)C(=O)O)c(=O)[nH]c1=O` (stereo not given) had a TGI of over 100 µM.

Compound `COc1ccc(C(=O)/C=C/c2ccncc2)cc1OC` yielded a TGI of 30 µM.

The compound `CC(C)(C)NC(=O)N1N=C(c2ccccc2)C1c1ccccc1` (stereo not given) yielded a TGI of over 100 µM.

Turning to `CC(C)(C)C(=O)OC(N)/C=C/c1ccccc1` (stereo not given), the TGI is over 100 µM.

Compound `O=C(CCc1cc(O)cc(O)c1)NCCc1cc(O)cc(O)c1` yielded a TGI of over 100 µM.

With `CC1(C)OC(=C(C#N)C#N)C(C#N)=C1/C=C/c1ccncc1`, the TGI was 3.93 µM.

On to `C[C@@H]1CCC2[C@@H](C)[C@@H](OCCO[C@H]3OC4O[C@@]5(C)CCC6[C@H](C)CCC([C@H]3C)[C@@]46OO5)OC3O[C@@]4(C)CCC1[C@]32OO4` (stereo not given in full), for which the TGI is over 100 µM.

For the next assay, the system named is MALME-3M melanoma. Put plainly: NCI anticancer screen, dose series, 48 h.
Compound `CC(CCC#N)(CCC#N)C(=O)CC(O)(C(F)(F)F)C(F)(F)F` had a TGI of 12 µM.

Compound `CC(C)(C)[Si](C)(C)OC1/C(=C/C#N)C(n2ccc(=O)[nH]c2=O)OC1CO` (stereo not given) returned a TGI of over 100 µM.

As for `COc1ccc(-c2c(C#N)c(O)n(NS(=O)(=O)c3ccc(C)cc3)c(=O)c2C#N)cc1`, the TGI was over 100 µM.

In turn, `CC12CC(C#N)(C#N)C(C#N)(CO1)C(=N)O2` (stereo not given) registered a TGI of 90.8 µM.

For the compound `COc1ccc(OC)c(N2C(=O)CSC2c2cc(OC)c(OC)c(OC)c2)c1` (stereo not given), the TGI was over 100 µM.

The compound `COc1ccc(CCN=C2OCc3ccccc32)cc1OC` showed a TGI of over 100 µM.

Compound `Cc1ccc(NC(=S)NNC(=O)c2cc(-c3ccccc3)nc3ccccc23)cc1` returned a TGI of 34.6 µM.

As to `O=C(O)c1cccnc1`, the TGI was over 100 µM.

`COc1ccc(-c2nc(SCC(=O)N/N=C/c3ccc(O)c(OC)c3)[nH]c2-c2ccc(OC)cc2)cc1` showed a TGI of 81.8 µM.

Regarding `COc1ccc(C(=O)/C=C/c2ccncc2)cc1OC`, the TGI came to 32.5 µM.

In the case of `CC(C)(C)NC(=O)N1N=C(c2ccccc2)C1c1ccccc1` (stereo not given), the TGI amounted to 45.6 µM.

`CC(C)(C)C(=O)OC(N)/C=C/c1ccccc1` (stereo not given): the TGI was over 100 µM.

Turning to `CC1(C)OC(=C(C#N)C#N)C(C#N)=C1/C=C/c1ccncc1`, the TGI amounted to 6.31 µM.

Regarding `C[C@@H]1CCC2[C@@H](C)[C@@H](OCCO[C@H]3OC4O[C@@]5(C)CCC6[C@H](C)CCC([C@H]3C)[C@@]46OO5)OC3O[C@@]4(C)CCC1[C@]32OO4` (stereo not given in full), the TGI was over 100 µM.

The next assay concerns MDA-N. Put plainly: NCI anticancer screen, dose series, 48 h.
On to `CC(CCC#N)(CCC#N)C(=O)CC(O)(C(F)(F)F)C(F)(F)F`, for which the TGI worked out at 4.88 µM.

In the case of `CC(C)(C)[Si](C)(C)OC1/C(=C/C#N)C(n2ccc(=O)[nH]c2=O)OC1CO` (stereo not given), the TGI is over 100 µM.

As to `COc1ccc(-c2c(C#N)c(O)n(NS(=O)(=O)c3ccc(C)cc3)c(=O)c2C#N)cc1`, the TGI was over 100 µM.
